Where two headings read alike, the source gives them in different places.

What all share (assay type): cell-based
One assay has as its system RSV A2. As to the kind of experiment: RSV NHBE EC50 (RSV A2 antiviral assay in normal human bronchial epithelial cells). The following applies: NHBE cells, RSV A2, 4 days, read-out: RSV NHBE EC50.
For another assay, the system named is DENV2 replicon. As to the kind of experiment: DENV-2 Huh-7 Rep EC50 (replicon luminescence). The following applies: Huh-7 replicon cells, 48 hours, read-out: DENV-2 Huh-7 Rep EC50. The gist of the method: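 Huh-7 cells carrying a DENV2 replicon, 5,000 cells/well, were incubated with dosed compounds for 48 h at 37° C. EnduRen live-cell substrate was added 1.5 h before luminescence reading. EC50 came from dose-response against DMSO-only wells.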

A further assay deals with RSV strain A2. In words: RSV HEp-2 EC50 (infectious cytopathic cell protection assay). The following applies: HEp-2 cells, RSV A2, 4 days, read-out: RSV HEp-2 EC50. An outline of the steps:
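HEp-2 cells mixed with titered RSV A2 at 50,000 cells/ml were added to plates holding 3-fold serial compound dilutions in DMSO, then incubated 4 days at 37° C. Cytoprotection was read as cell viability by CellTiter-Glo luminescence and converted to percent inhibition against 0% and 100% inhibition controls.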

Another assay has as its system HRV16. As to the kind of experiment: HRV16 HELA EC50 (cytopathic effect in H1-HeLa cells). The gist of the method:
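H1-HeLa cells seeded one day before, given 3-fold serial compound dilutions in triplicate just prior to infection with pre-titrated virus. Incubated 96 h at 33 °C/5% CO2; protection from cytopathic effect read as viability by CellTiter-Glo luminescence, normalised to infected untreated (0%) and uninfected (100%) controls.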

Assay [1] concerns Dengue serotype 2 New Guinea C (NGC) strain. In words: DENV-2 Huh-7 EC50 (qPCR in Huh7 cells). On the procedure: Huh7 (Human hepatocarcinoma 7) cells were maintained in 10% FCS-containing DMEM complete media. On the day of the assay, cells were trypsinized (0.1% Trypsin-EDTA), washed and infected for 2 hours in serum-free DMEM with Dengue serotype 2 New Guinea C (NGC) strain at MOI=0.1 with gentle agitation at 37° C. After 2 hours, cells were washed with serum-free media and suspended in 10% FCS-containing DMEM (Gibco, supplemented with sodium pyruvate, NEAA, Penicillin-Streptomycin). 10^5 cells were plated in triplicate in 96-well plates with compounds dispensed at graded doses (Hewlett-Packard D300 Digital Dispenser). All wells were normalized to 0.25% DMSO. At 48 hours, cells were washed with 1×PBS and all supernatants removed. Total RNA was extracted using RNEasy 96 plates (Qiagen) and used to generate first-strand cDNA using XLT cDNA 5×Supermix (QuantaBio). cDNA was used as a template in a Taqman qPCR duplex reaction specific to DENV2 viral and GAPDH gene expression. EC50 values were determined using Prism Graphpad software, with normalization to a positive control and no compound negative control wells.

Where [2] appears, read: H1-HeLa cells, 96 h, 33° C.; read-out: HRV16 HELA EC50.
Where [3] appears, read: Dengue virus, DENV2, Huh-7, 48 h.
Setting [4] is: human respiratory syncytial virus, HEp-2, 96 h.
The mark [5] stands for this setting: human respiratory syncytial virus, NHBE, 96 h.
Where [6] appears, read: 96 h, H1-HeLa cells, 33° C., read-out: HRV16 HELA EC50.

Regarding `C[C@H](N[P@](=O)(OC[C@@]1(C#N)O[C@@H](c2ccc3c(N)ncnn23)[C@H](O)[C@@H]1O)Oc1ccccc1)C(=O)OCC1CCC1` [Example 120], the 50% effective concentration (EC50) with RSV A2 turned out to be 104 nM; in the assay on DENV2 replicon it was 7460 nM; with RSV strain A2 it was 101 nM; in the assay with HRV16 (setting [2]), 295 nM; in assay [1] (48 hours), 798 nM.

With `CCOC(=O)[C@H](C)NP(=O)(OC[C@@]1(C#N)O[C@@H](c2ccc3c(N)ncnn23)[C@H](O)[C@@H]1O)Oc1ccc(C(C)(C)C)cc1` (mixture of isomers) [Example 263, Ethyl ((((2R,3S,4R,5S)-5-(4-aminopyrrolo[2,1-f][1,2,4]triazin-7-yl)-2-cyano-3,4-dihydroxytetrahydrofuran-2-yl)methoxy)(4-(tert-butyl)phenoxy)phosphoryl)-L-alaninate], the EC50 was found to be 8030 nM in the assay on DENV2 replicon (setting [3]), 35 nM in the assay with RSV strain A2 (setting [4]) and 569 nM in assay [1] (setting [3]).

As to `C[C@H](N[P@@](=O)(OC[C@@]1(C#N)O[C@@H](c2ccc3c(N)ncnn23)[C@H](O)[C@@H]1O)Oc1ccccc1)C(=O)OCC1CCC1` [Example 119], the EC50 with RSV A2 amounted to 120 nM; with DENV2 replicon, 31100 nM; in the assay on RSV strain A2, 539 nM; in the assay on HRV16 (setting [2]) it was 247 nM; in assay [1] (48 hours), 4280 nM.

On to `C[C@H](NP(=O)(OC[C@@]1(C#N)O[C@@H](c2ccc3c(N)ncnn23)[C@H](O)[C@@H]1O)Oc1ccccc1)C(=O)OCC1(C)CC1` (stereo partly drawn) [Example 257, (1-methylcyclopropyl)methyl ((((2R,3S,4R,5S)-5-(4-aminopyrrolo[2,1-f][1,2,4]triazin-7-yl)-2-cyano-3,4-dihydroxytetrahydrofuran-2-yl)methoxy)(phenoxy)phosphoryl)-L-alaninate], for which the EC50 with DENV2 replicon (setting [3]) is 5480 nM; in the assay with RSV strain A2 (setting [4]), 29 nM; in assay [1] (setting [3]), 2210 nM.

Consider `CCCCCCCCOC(=O)[C@H](C)NP(=O)(OC[C@@]1(C#N)O[C@@H](c2ccc3c(N)ncnn23)[C@H](O)[C@@H]1O)Oc1ccccc1` (stereo partly drawn) [Example 188, octyl ((((2R,3S,4R,5S)-5-(4-aminopyrrolo[2,1-f][1,2,4]triazin-7-yl)-2-cyano-3,4-dihydroxytetrahydrofuran-2-yl)methoxy)(phenoxy)phosphoryl)-L-alaninate], for which the EC50 with RSV A2 (setting [5]) stood at 38 nM; in the assay with DENV2 replicon (setting [3]) it was 21400 nM; in the assay on RSV strain A2 (setting [4]), 186 nM; in the assay on HRV16 (setting [6]), 429 nM; in assay [1] (setting [3]), 3020 nM.

Turning to `CC(NP(=O)(OCC1(C#N)OC(c2ccc3c(N)ncnn23)C(O)C1O)Oc1ccccc1)C(=O)OCC1CCC(C(F)(F)F)CC1` (single isomer, unassigned) [Example 28], the EC50 with RSV A2 came out at 53 nM; in the assay with DENV2 replicon, 29600 nM; in the assay on RSV strain A2, 238 nM; with HRV16 (setting [2]) it was 590 nM; in assay [1] (48 hours) it was 2160 nM.

Consider `CCOC(=O)[C@H](C)NP(=O)(OC[C@@]1(C#N)O[C@@H](c2ccc3c(N)ncnn23)[C@H](O)[C@@H]1O)Oc1ccc(C(C)(C)C)cc1` (single isomer, unassigned) [Example 265], for which the EC50 in the assay with RSV strain A2 was determined as 215 nM; in assay [1] (setting [3]) it was 390 nM.

With `CC(NP(=O)(OCC1(C#N)OC(c2ccc3c(N)ncnn23)C(O)C1O)Oc1ccccc1)C(=O)OCC1CCC(C(F)(F)F)CC1` (single isomer, unassigned) [Example 27], the EC50 in the assay with RSV A2 is 18 nM; in the assay with DENV2 replicon, 82200 nM; with RSV strain A2, 1300 nM; in the assay with HRV16 (setting [2]) it was 3160 nM; in assay [1] (48 hours) it was 5680 nM.

`C[C@H](NP(=O)(OC[C@@]1(C#N)O[C@@H](c2ccc3c(N)ncnn23)[C@H](O)[C@@H]1O)Oc1ccccc1)C(=O)OC1CCCCCC1` (single isomer, unassigned) [Example 135]: the EC50 in the assay with RSV A2 (setting [5]) amounted to 66 nM; with RSV strain A2, 233 nM; in assay [1] (setting [3]), 1390 nM.

Consider `C[C@H](NP(=O)(OC[C@@]1(C#N)O[C@@H](c2ccc3c(N)ncnn23)[C@H](O)[C@@H]1O)Oc1ccccc1)C(=O)OCc1ccccc1` (stereo partly drawn) [Example 37, benzyl ((((2R,3S,4R,5S)-5-(4-aminopyrrolo[2,1-f][1,2,4]triazin-7-yl)-2-cyano-3,4-dihydroxytetrahydrofuran-2-yl)methoxy) (phenoxy)phosphoryl)-L-alaninate], for which the EC50 with RSV A2 (setting [5]) is 129 nM; in the assay with DENV2 replicon (setting [3]) it was 6700 nM; with RSV strain A2 (setting [4]) it was 136 nM; with HRV16 (setting [6]), 329 nM; in assay [1] (setting [3]) it was 1510 nM.

Turning to `COCCCOC(=O)[C@H](C)NP(=O)(OC[C@@]1(C#N)O[C@@H](c2ccc3c(N)ncnn23)[C@H](O)[C@@H]1O)Oc1ccccc1` (single isomer, unassigned) [Example 59], the EC50 was found to be 111 nM with RSV A2, 56500 nM in the assay with DENV2 replicon and 4650 nM in assay [1] (48 hours).

`C[C@H](NP(=O)(OC[C@@]1(C#N)O[C@@H](c2ccc3c(N)ncnn23)[C@H](O)[C@@H]1O)Oc1ccccc1)C(=O)OCC1CC1` (single isomer, unassigned) [Example 10]: the EC50 stood at 421 nM with RSV A2; 17900 nM in the assay on DENV2 replicon; 191 nM with RSV strain A2; 583 nM in the assay with HRV16 (setting [2]); 2790 nM in assay [1] (48 hours).

In the case of `C[C@H](NP(=O)(OC[C@@]1(C#N)O[C@@H](c2ccc3c(N)ncnn23)[C@H](O)[C@@H]1O)Oc1ccccc1)C(=O)OCC(C)(C)C(F)(F)F` (stereo partly drawn) [Example 260, 3,3,3-trifluoro-2,2-dimethylpropyl ((((2R,3S,4R,5S)-5-(4-aminopyrrolo[2,1-f][1,2,4]triazin-7-yl)-2-cyano-3,4-dihydroxytetrahydrofuran-2-yl)methoxy)(phenoxy)phosphoryl)-L-alaninate], the EC50 with DENV2 replicon (setting [3]) is 9950 nM; with RSV strain A2 (setting [4]), 66 nM; in assay [1] (setting [3]) it was 682 nM.

With `C[C@H](NP(=O)(OC[C@@]1(C#N)O[C@@H](c2ccc3c(N)ncnn23)[C@H](O)[C@@H]1O)Oc1ccccc1)C(=O)OCC1CC1` (single isomer, unassigned) [Example 9], the EC50 with RSV A2 is 97 nM; in the assay with DENV2 replicon it was > 50000 nM; in the assay with RSV strain A2, 1010 nM; in the assay with HRV16 (setting [2]), 324 nM; in assay [1] (48 hours) it was 1460 nM.

Consider `C[C@H](NP(=O)(OC[C@@]1(C#N)O[C@@H](c2ccc3c(N)ncnn23)[C@H](O)[C@@H]1O)Oc1ccccc1)C(=O)O[C@H]1CCCC[C@@H]1C` (mixture of isomers) [Example 155, trans-2-methylcyclohexyl ((((2R,3S,4R,5S)-5-(4-aminopyrrolo[2,1-f][1,2,4]triazin-7-yl)-2-cyano-3,4-dihydroxytetrahydrofuran-2-yl)methoxy)(phenoxy)phosphoryl)-L-alaninate], for which the EC50 in the assay with RSV A2 (setting [5]) is 1580 nM; in the assay with DENV2 replicon (setting [3]), 84400 nM; in the assay with RSV strain A2 (setting [4]), 4320 nM; with HRV16 (setting [6]), 4200 nM.

In the case of `N#C[C@]1(COP(=O)(NCCOC(=O)C2CCCCC2)Oc2ccccc2)O[C@@H](c2ccc3c(N)ncnn23)[C@H](O)[C@@H]1O` (stereo partly drawn) [Example 166, 2-(((((2R,3S,4R,5S)-5-(4-aminopyrrolo[2,1-f][1,2,4]triazin-7-yl)-2-cyano-3,4-dihydroxytetrahydrofuran-2-yl)methoxy)(phenoxy)phosphoryl)amino)ethyl cyclohexane carboxylate], the EC50 amounted to 624 nM in the assay on RSV A2 (setting [5]), 22100 nM with DENV2 replicon (setting [3]), 83 nM in the assay on RSV strain A2 (setting [4]) and 336 nM with HRV16 (setting [6]).

Take `CC(C)OC(=O)C1(NP(=O)(OC[C@@]2(C#N)O[C@@H](c3ccc4c(N)ncnn34)[C@H](O)[C@@H]2O)Oc2ccccc2)CCC1` (mixture of isomers) [Example 95, isopropyl 1-(((((2R,3S,4R,5S)-5-(4-aminopyrrolo[2,1-f][1,2,4]triazin-7-yl)-2-cyano-3,4-dihydroxytetrahydrofuran-2-yl)methoxy)(phenoxy)phosphoryl)amino)cyclobutanecarboxylate]: the half-maximal effective concentration (EC50) is > 5000 nM in the assay with RSV A2 (setting [5]), > 50000 nM with DENV2 replicon (setting [3]), 15200 nM in the assay on RSV strain A2 (setting [4]) and > 42200 nM in the assay on HRV16 (setting [6]).

Turning to `C[C@H](NP(=O)(OC[C@@]1(C#N)O[C@@H](c2ccc3c(N)ncnn23)[C@H](O)[C@@H]1O)Oc1ccccc1)C(=O)OC1CCC1` (stereo partly shown) [Example 51], the EC50 was > 1240 nM in the assay on RSV A2, 9210 nM in the assay on DENV2 replicon, 90 nM in the assay with RSV strain A2 and 357 nM with HRV16 (setting [2]).
